Patent publication US20240122938A1, “METHODS AND COMPOSITIONS FOR TREATING UVEAL MELANOMA” (INSERM (INSTITUT NATIONAL DE LA SANTÉ ET DE LA RECHERCHE …, priority 2019, published 2024)

Experiments:
[1] = test system: ER stress molecules in Mel270 cells; test: Western blot of ER stress molecules; type: cell-based, human
Experimental: Western blot of ER stress molecules in Mel270 cells treated with ABT-263 5 μM in the absence or presence of QVD-OPh 20 μM. Representative western blot are shown.
(§1) Western blotting was performed as previously described 25,26. Briefly, cell lysates (30 μg) were separated using SDS-PAGE, transferred onto a PVDF membrane and subsequently exposed to the appropriate antibodies, anti-BCL2 (ms-123-PO) was from neomarker, anti-caspase 3 (#610323) was from BD, anti-BAX (#8429) was from sigma, anti-PARP (#9542), anti-BCL-XL (#2762), anti-caspase 9 (#9502) and anti-PUMA (#4976) were from Cell Signaling Technology Inc, anti-MCL1 (#sc-819), anti-NOXA (#56169), and anti-HSP90 (#sc-13119) were from Santa Cruz biotechnology. The proteins were visualized using the ECL system (Amersham).

[2] = test system: metastatic uveal melanoma cells; test: Cell death by Annexin V/DAPI staining (flow cytometry); type: cell-based, human
Experimental: (§2) Cells were seeded at a density of 100 000 cells/well, in 6-well plate and treated with ABT-263 for indicated time. Cells were harvested using accutase enzyme, washed twice with ice-cold phosphate-buffered saline, resuspended in a buffer (Hepes 250 mM, NaCl 150 mM, KCl 5 mM, MgCl2 2 mM, CaCl2) 2 mM) with DAPI (1 μg/ml) and Annexin V-Alexa Fluor 647 conjugate (1/100) and incubated for 15 minutes at room temperature (25° C.) in the dark. Samples were immediately analyzed by a flow cytometer (MACS QUANT) using a laser at 405 nm excitation with a bandpass filter at 425 nm and 475 nm for DAPI detection and a laser at 635 nm excitation with a bandpass filter at 650 nm and 665 nm for Alexa Fluor 647 dye. Annexin and DAPI mono- or double positive cells were counted as dead cells.

[3] = test system: primary uveal melanoma cell lines; test: as above; type: cell-based, human
Experimental: as §2

[4] = test system: ATF4 and CHOP in 92.1 cells; test: Western blot of ER stress molecules; type: cell-based, human
Experimental: as §1, with “(Amersham). The western blots shown are representative of at least 3 independent experiments.” for “(Amersham).”

[5] = test system: CDK4, p27 and p21 in Mel270 cells; test: Western blot of cell cycle proteins; type: cell-based, human
Experimental: as §1, with “(Amersham). The western blots shown are representative of at least 3 independent experiments.” for “(Amersham).”

[6] = test system: ER stress molecules in metastatic human uveal melanoma cells; test: Western blot of ER stress molecules; type: cell-based
Experimental: as §1, with “(Amersham). The western blots shown are representative of at least 3 independent experiments.” for “(Amersham).”

[7] = test system: short-term cultures of primary uveal melanoma tumour; test: Cell death in short-term cultures; type: cell-based, human; settings: data not shown
Experimental: Human uveal melanoma cell lines and short-term cultures derived from different patients with metastatic malignant melanoma cells were grown in DMEM supplemented with 7% FBS at 37° C. in a humidified atmosphere containing 5% CO2. Lipofectamine™ RNAiMAX and opti-MEM medium were purchased from Invitrogen (San Diego, CA, USA). ABT-263 was obtained from Euromedex and qVD from Clinisciences. Cells were seeded at a density of 100 000 cells/well, in 6-well plate and treated with ABT-263 for indicated time. Cells were harvested using accutase enzyme, washed twice with ice-cold phosphate-buffered saline, resuspended in a buffer (Hepes 250 mM, NaCl 150 mM, KCl 5 mM, MgCl2 2 mM, CaCl2) 2 mM) with DAPI (1 μg/ml) and Annexin V-Alexa Fluor 647 conjugate (1/100) and incubated for 15 minutes at room temperature (25° C.) in the dark. Samples were immediately analyzed by a flow cytometer (MACS QUANT) using a laser at 405 nm excitation with a bandpass filter at 425 nm and 475 nm for DAPI detection and a laser at 635 nm excitation with a bandpass filter at 650 nm and 665 nm for Alexa Fluor 647 dye. Annexin and DAPI mono- or double positive cells were counted as dead cells.

[8] = test system: OMM1 uveal melanoma cells; test: Mitochondrial membrane potential by TMRE staining; type: cell-based, human; settings: OMM1; ABT-263 3 μM or 5 μM, 48 h
Experimental: (§3) FIG. 1. ABT-263 induces apoptosis of uveal melanoma cells. Detection of the mitochondrial membrane potential using TMRE staining in Mel270 and OMM1 uveal melanoma cells exposed to ABT-263 3 μM or 5 μM for 48 h in the absence or presence of QVD-OPh 20 μM.

[9] = test system: Mel270 uveal melanoma cells; test: Mitochondrial membrane potential by TMRE staining; type: cell-based, human; settings: Mel270; ABT-263 3 μM or 5 μM, 48 h
Experimental: as §3

92.1 cells = test: Cell death / apoptosis; type: cell-based, human; settings: 92.1 cells; similar level as Mel270
Experimental: as §2

NOXA in primary cells = test: Protein immunoblot of BCL-2 family members; type: cell-based, human; settings: 24 h of treatment
Experimental: as §1

[10] = test system: BCL-2 family members in metastatic OMM1 cells; test: Protein immunoblot of BCL-2 family members; type: cell-based, human
Experimental: as §1

OMM1 cells = test: Cell proliferation assay; type: cell-based, human; settings: OMM1 metastatic melanoma cells
Experimental: (§4) Human uveal melanoma cell lines and short-term cultures derived from different patients with metastatic malignant melanoma cells were grown in DMEM supplemented with 7% FBS at 37° C. in a humidified atmosphere containing 5% CO2. Lipofectamine™ RNAiMAX and opti-MEM medium were purchased from Invitrogen (San Diego, CA, USA). ABT-263 was obtained from Euromedex and qVD from Clinisciences.

[11] = test system: OMM2,5 metastatic melanoma cells; test: Cell proliferation assay; type: cell-based, human
Experimental: as §4

primary melanoma cells = test: Cell proliferation assay; type: cell-based, human; settings: data not shown
Experimental: as §4

Compound: CC1(C)CCC(c2ccc(Cl)cc2)=C(CN2CCN(c3ccc(C(=O)NS(=O)(=O)c4ccc(N[C@H](CCN5CCOCC5)CSc5ccccc5)c(S(=O)(=O)C(F)(F)F)c4)cc3)CC2)C1 [ABT-263, 4-[4-[[2-(4-chlorophenyl)-5,5-dimethyl-1-cyclohexen-1-yl]methyl]-1-piperazinyl]-N-[[4-[[(1R)-3-(4-morpholinyl)-1-[(phenylthio)methyl]propyl]amino]-3-[(trifluoromethyl)sulfonyl]phenyl]sulfonyl]-benzamide]
- ATF4 and CHOP level ([1]; Mel270 cells): enhanced
- ER stress pathways (BIP, PERK, EIF2α, ATF4, IRE1α, XBP1, ATF6, CHOP) ([1]; kinetics analysis in Mel270): activates all branches of the ER stress pathways
- cell death [2]: 80%
- cell death [3]: 20-35%
- ATF4 and CHOP level [4]: enhanced
- cell cycle (reduced CDK4, increased p27 and p21) [5]: cell cycle arrest
- PERK and IRE1α phosphorylation ([6]; metastatic cell lines): did not detect
- induction of ATF4 and CHOP ([6]; metastatic cells): hardly detectable
- killing effect [7]: killing effect was also found
- mitochondrial membrane potential ΔΨm [8]: dose-dependently reduced
- mitochondrial membrane potential ΔΨm [9]: dose-dependently reduced
- ABT-263-induced apoptosis with PERK knockdown (92.1 cells): sensitized
- change in BCL-2 family proteins (NOXA in primary cells): increase in pro-apoptotic NOXA level
- BCL2 level ([10]; cell line not given): no change
- expression of BCL-xL, MCL1, PUMA, BAX ([10]; metastatic OMM1 cells only): reduced expression
- proliferation (OMM1 cells): strongly reduced proliferation
- proliferation [11]: strongly reduced proliferation
- proliferation, response of primary melanoma cells (primary melanoma cells): highly resistant
